Like-named read-outs stand apart in the source and are kept apart here.
System: primary human T-cells
Assay: IL2 secretion measurements in CD3-stimulated T-cells
Type: cell-based
Conditions: CD3 condition; for Emax: read-out: Emax IL2 (% activation); for EC50: IL2 secretion after 24 hours, read-out: Tcell IL2 CD3 EC50
Outline: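 Expanded primary human T-cells (100k/well) were stimulated on CD3 antibody-coated or PBS-coated plates with compounds in 5–6 point dose response from 20 or 10 μM top final (dilution factor 3.333, 0.2% DMSO final). IL2 in 24 h supernatants was measured by ProQuantum immunoassay or ELISA, normalized to DMSO (0%) and 20 μM reference compound A1 (100%) to fit EC50 and Emax.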

[1] = Homo sapiens, T-cell, 24 h, IL2 after 24 hours, 20 μM reference compound A1 = 100%

Compound	Emax [1]	EC50 (Homo sapiens, T-cell, 24 h)	Emax IL2 (% activation) (IL2 after 24 hours, 20 μM reference compound A1 = 100%)	EC50
CC(C)(c1nnc(-c2ccc3c(c2)N(Cc2ccc(SC(F)(F)F)cc2)C(=O)[C@@H](N)CS3(=O)=O)o1)S(C)(=O)=O [Example 7]	94%	2800 nM		
COCC(C)(C)Oc1ccc(CN2C(=O)[C@@H](N)CS(=O)(=O)c3cc(F)c(-c4noc(C(C)(C)S(C)(=O)=O)n4)cc32)cc1 [Example 62, (3R)-3-amino-8-fluoro-5-[[4-(2-methoxy-1,1-dimethyl-ethoxy)phenyl]methyl]-7-[5-(1-methyl-1-methylsulfonyl-ethyl)-1,2,4-oxadiazol-3-yl]-1,1-dioxo-2,3-dihydro-benzothiazepin-4-one]	169%	3350 nM		
COc1cccc(-c2ccc(CN3C(=O)[C@@H](N)CS(=O)(=O)c4ccc(-c5nnc(C(C)(C)S(C)(=O)=O)o5)cc43)cc2)c1 [Example 22, (3R)-3-amino-5-[[4-(3-methoxyphenyl)phenyl]methyl]-7-[5-(1-methyl-1-methylsulfonyl-ethyl)-1,3,4-oxadiazol-2-yl]-1,1-dioxo-2,3-dihydro-1λ6,5-benzothiazepin-4-one]	63%	2210 nM		
CC(C)(c1nnc(-c2ccc3c(c2)N(Cc2ccc(OCC(F)(F)F)cc2)C(=O)[C@@H](N)CS3(=O)=O)o1)S(C)(=O)=O [Example 6, (3R)-3-amino-7-[5-(1-methyl-1-methylsulfonyl-ethyl)-1,3,4-oxadiazol-2-yl]-1,1-dioxo-5-[[4-(2,2,2-trifluoroethoxy)phenyl]methyl]-2,3-dihydro-1λ6,5-benzothiazepin-4-one]	54%	2660 nM		
CC(C)(c1nnc(-c2ccc3c(c2)N(Cc2ccc(Oc4ccc(F)c(Cl)c4)cc2)C(=O)[C@@H](N)CS3(=O)=O)o1)S(C)(=O)=O [Example 37, (3R)-3-amino-5-[[4-(3-chloro-4-fluoro-phenoxy)phenyl]methyl]-7-[5-(1-methyl-1-methylsulfonyl-ethyl)-1,3,4-oxadiazol-2-yl]-1,1-dioxo-2,3-dihydro-1λ6,5-benzothiazepin-4-one]	135%	8140 nM		
CN(C)S(=O)(=O)C(C)(C)c1nnc(-c2ccc3c(c2)N(Cc2ccc(-c4ccc(C(F)(F)F)cc4)cc2)C(=O)[C@@H](N)CS3(=O)=O)o1 [Example 65, 2-[5-[(3R)-3-amino-1,1,4-trioxo-5-[[4-[4-(trifluoromethyl)phenyl]phenyl]methyl]-2,3-dihydro-1λ6,5-benzothiazepin-7-yl]-1,3,4-oxadiazol-2-yl]-N,N-dimethyl-propane-2-sulfonamide]	85%	3160 nM		
COc1cccc(Oc2ccc(CN3C(=O)[C@@H](N)CS(=O)(=O)c4ccc(-c5nnc(C(C)(C)S(C)(=O)=O)o5)cc43)cc2)c1 [Example 42]	125%	3130 nM		
CC(C)(c1nc(-c2cc3c(cc2F)[S+]([O-])C[C@H](N)C(=O)N3Cc2ccc(Oc3ccccc3)cc2)no1)S(C)(=O)=O (stereo partly drawn) [Example 52, (3R)-3-amino-8-fluoro-7-[5-(1-methyl-1-methylsulfonyl-ethyl)-1,2,4-oxadiazol-3-yl]-1-oxo-5-[(4-phenoxyphenyl)methyl]-2,3-dihydro-1λ4,5-benzothiazepin-4-one]			253%	1170 nM
CC(C)(c1nnc(-c2ccc3c(c2)N(Cc2ccc(OCc4ccc(F)cc4)cc2)C(=O)[C@@H](N)CS3(=O)=O)o1)S(C)(=O)=O [Example 12, (3R)-3-amino-5-[[4-[(4-fluorophenyl)methoxy]phenyl]methyl]-7-[5-(1-methyl-1-methylsulfonyl-ethyl)-1,3,4-oxadiazol-2-yl]-1,1-dioxo-2,3-dihydro-1λ6,5-benzothiazepin-4-one]	173%	1020 nM		
CC(C)(c1nnc(-c2cc3c(cc2F)S(=O)(=O)C[C@H](N)C(=O)N3Cc2ccc(-c3ccc(C(F)(F)F)cc3)cc2)o1)S(C)(=O)=O [Example 35, (3R)-3-amino-8-fluoro-7-[5-(1-methyl-1-methylsulfonyl-ethyl)-1,3,4-oxadiazol-2-yl]-1,1-dioxo-5-[[4-[4-(trifluoromethyl)phenyl]phenyl]methyl]-2,3-dihydro-1λ6,5-benzothiazepin-4-one]	239%	43 nM		
CS(=O)(=O)C1(c2nnc(-c3ccc4c(c3)N(Cc3ccc(Oc5ccccc5)cc3)C(=O)[C@@H](N)CS4(=O)=O)o2)CCC1 [Example 68, (3R)-3-amino-7-[5-(1-methylsulfonylcyclobutyl)-1,3,4-oxadiazol-2-yl]-1,1-dioxo-5-[(4-phenoxyphenyl)methyl]-2,3-dihydro-1λ6,5-benzothiazepin-4-one]	41%	2200 nM		
CC(C)(c1nnc(-c2cc3c(cc2F)S(=O)(=O)C[C@H](N)C(=O)N3Cc2ccc(-c3ccc(C(F)(F)F)nc3)cc2)o1)S(C)(=O)=O [Example 36]	61%	637 nM		
CS(=O)(=O)C1(c2nnc(-c3cc4c(cc3F)S(=O)(=O)C[C@H](N)C(=O)N4Cc3ccc(Cl)cc3)o2)CC1 [Example 1, (3R)-3-amino-5-[(4-chlorophenyl)methyl]-8-fluoro-7-[5-(1-methylsulfonylcyclopropyl)-1,3,4-oxadiazol-2-yl]-1,1-dioxo-2,3-dihydro-1λ6,5-benzothiazepin-4-one]	55%	1010 nM		
CC(C)(c1nnc(-c2ccc3c(c2)N(Cc2ccc(Oc4cccc(Cl)c4Cl)cc2)C(=O)[C@@H](N)CS3(=O)=O)o1)S(C)(=O)=O [Example 32, (3R)-3-amino-5-[[4-(2,3-dichlorophenoxy)phenyl]methyl]-7-[5-(1-methyl-1-methylsulfonyl-ethyl)-1,3,4-oxadiazol-2-yl]-1,1-dioxo-2,3-dihydro-1λ6,5-benzothiazepin-4-one]	82%	1100 nM		
CC(C)(c1nnc(-c2ccc3c(c2)N(Cc2ccc(-c4ccc(C#N)cc4)cc2)C(=O)[C@@H](N)CS3(=O)=O)o1)S(C)(=O)=O [Example 20, 4-[4-[[(3R)-3-amino-7-[5-(1-methyl-1-methylsulfonyl-ethyl)-1,3,4-oxadiazol-2-yl]-1,1,4-trioxo-2,3-dihydro-1λ6,5-benzothiazepin-5-yl]methyl]phenyl]benzonitrile]	77%	5000 nM		
CS(=O)(=O)Cn1nnc(-c2cc3c(cc2F)S(=O)(=O)C[C@H](N)C(=O)N3Cc2ccc(Oc3ccccc3)cc2)n1 [Example 54, (3R)-3-amino-8-fluoro-7-[2-(methylsulfonylmethyl)tetrazol-5-yl]-1,1-dioxo-5-[(4-phenoxyphenyl)methyl]-2,3-dihydro-1λ6,5-benzothiazepin-4-one]	132%	1040 nM		
CC(C)(c1nnc(-c2ccc3c(c2)N(Cc2ccc(Oc4cccc(OC(F)(F)F)c4)cc2)C(=O)[C@@H](N)CS3(=O)=O)o1)S(C)(=O)=O [Example 40, (3R)-3-amino-7-[5-(1-methyl-1-methylsulfonyl-ethyl)-1,3,4-oxadiazol-2-yl]-1,1-dioxo-5-[[4-[3-(trifluoromethoxy)phenoxy]phenyl]methyl]-2,3-dihydro-126,5-benzothiazepin-4-one]	196%	801 nM		
CC(C)(c1nnc(-c2ccc3c(c2)N(Cc2ccc(OCc4ccccc4F)cc2)C(=O)[C@@H](N)CS3(=O)=O)o1)S(C)(=O)=O [Example 14, (3R)-3-amino-5-[[4-[(2-fluorophenyl)methoxy]phenyl]methyl]-7-[5-(1-methyl-1-methylsulfonyl-ethyl)-1,3,4-oxadiazol-2-yl]-1,1-dioxo-2,3-dihydro-1λ6,5-benzothiazepin-4-one]	101%	3770 nM		
CC(C)(c1nc(-c2cc3c(cc2F)S(=O)(=O)C[C@H](N)C(=O)N3Cc2ccc(OCc3nc(C(F)(F)F)no3)cc2)no1)S(C)(=O)=O [Example 59, (3R)-3-amino-8-fluoro-7-[5-(1-methyl-1-methylsulfonyl-ethyl)-1,2,4-oxadiazol-3-yl]-1,1-dioxo-5-[[4-[[3-(trifluoromethyl)-1,2,4-oxadiazol-5-yl]methoxy]phenyl]methyl]-2,3-dihydro-1λ6,5-benzothiazepin-4-one]	135%	4270 nM		
CC(C)(c1nc(-c2cc3c(cc2F)S(=O)(=O)C[C@H](N)C(=O)N3Cc2ccc(C3CCOCC3)cc2)no1)S(C)(=O)=O [Example 53, (3R)-3-amino-8-fluoro-7-[5-(1-methyl-1-methylsulfonyl-ethyl)-1,2,4-oxadiazol-3-yl]-1,1-dioxo-5-[(4-tetrahydropyran-4-ylphenyl)methyl]-2,3-dihydro-1λ6,5-benzothiazepin-4-one]	96%	4360 nM		
CC(C)(c1nnc(-c2ccc3c(c2)N(Cc2ccc(-c4ccc(C(F)(F)F)cc4)cc2)C(=O)[C@@H](N)CS3(=O)=O)o1)S(=O)(=O)N1CCCC1 [Example 67, (3R)-3-amino-7-[5-(1-methyl-1-pyrrolidin-1-ylsulfonyl-ethyl)-1,3,4-oxadiazol-2-yl]-1,1-dioxo-5-[[4-[4-(trifluoromethyl)phenyl]phenyl]methyl]-2,3-dihydro-1λ6,5-benzothiazepin-4-one]	71%	1760 nM		
COc1cc(Cl)cc(Oc2ccc(CN3C(=O)[C@@H](N)CS(=O)(=O)c4ccc(-c5nnc(C(C)(C)S(C)(=O)=O)o5)cc43)cc2)c1 [Example 41, (3R)-3-amino-5-[[4-(3-chloro-5-methoxy-phenoxy)phenyl]methyl]-7-[5-(1-methyl-1-methylsulfonyl-ethyl)-1,3,4-oxadiazol-2-yl]-1,1-dioxo-2,3-dihydro-1λ6,5-benzothiazepin-4-one]	115%	1460 nM		
CC(C)(c1nnc(-c2ccc3c(c2)N(Cc2ccc(Oc4cc(F)cc(C(F)(F)F)c4)cc2)C(=O)[C@@H](N)CS3(=O)=O)o1)S(C)(=O)=O [Example 39]	106%	813 nM		

Source: patent US20260035364A1, “BICYCLIC TETRAHYDROTHIAZEPINE DERIVATIVES” (Hoffmann-La Roche Inc., priority 2022, published 2026)
